{
  "source": "paper PMC12735834",
  "about": "“Novel Trinorditerpene from Dysoxylum parasiticum (Osbeck) Kosterm: Leaf Extract with Cytotoxic, Antioxidant and α-Glucosidase Inhibitory Activities” (Molecules, 2025)",
  "target": "α-glucosidase",
  "assay": "colorimetric p-NPG hydrolysis assay, […] nm, triplicate",
  "type": "biochemical, Saccharomyces cerevisiae",
  "data": [
    {"substance": "12-(3-carboxyfuran-2-yl)-trinorlabda-5,9-dien-15-oic acid [parasitic acid]", "values": [
      {"measurement": "IC50", "result": "36.29 ± 1.06", "unit": "µg/mL"}
    ]}
  ]
}
